Where “and” joins values, the source holds several entries; their conditions need not be identical. Equal values may be shown once.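 Exposure lasted 48 hours, with cells grown in 96-well plates and compounds tested at five concentrations. GI50: concentration for 50% inhibition of growth.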 Calls of active or inactive are those of the source. Cut-off read from the data, not from the text of the source: active = GI50 up to about 1.1 µM and inactive = higher.
Tests used:
Assay in all cases: NCI tumour cell line growth inhibition, 48 h
HCT-15 = test system: HCT-15
Hs-578T = test system: Hs-578T
M14 = test system: M14
OVCAR-3 = test system: OVCAR-3
NCI-H23 = test system: NCI-H23
K562 = test system: K562
IGROV-1 = test system: IGROV-1
KM12 = test system: KM12
SR = test system: SR
NCI-H226 = test system: NCI-H226
EKVX = test system: EKVX
A549 = test system: A549
MDA-N = test system: MDA-N
HL-60 = test system: HL-60
PC-3 = test system: PC-3
T47D = test system: T47D
HOP-92 = test system: HOP-92
TK-10 = test system: TK-10
SK-MEL-2 = test system: SK-MEL-2
HCC 2998 = test system: HCC 2998
MOLT-4 = test system: MOLT-4
SF-295 = test system: SF-295
CAKI-1 = test system: CAKI-1
HCT-116 = test system: HCT-116
UO-31 = test system: UO-31
UACC-257 = test system: UACC-257
U-251 = test system: U-251
MDA-MB-435 = test system: MDA-MB-435
UACC-62 = test system: UACC-62
OVCAR-4 = test system: OVCAR-4
OVCAR-8 = test system: OVCAR-8
DU-145 = test system: DU-145
SK-MEL-28 = test system: SK-MEL-28
SNB-19 = test system: SNB-19
786-0 = test system: 786-0
SK-MEL-5 = test system: SK-MEL-5
SW-620 = test system: SW-620
RXF 393 = test system: RXF 393
SF-539 = test system: SF-539
HOP-62 = test system: HOP-62
SF-268 = test system: SF-268
SK-OV-3 = test system: SK-OV-3
NCI-H522 = test system: NCI-H522
SN12C = test system: SN12C
COLO 205 = test system: COLO 205
LOX IMVI = test system: LOX IMVI
NCI/ADR-RES = test system: NCI/ADR-RES
OVCAR-5 = test system: OVCAR-5
HT-29 = test system: HT-29
RPMI-8226 = test system: RPMI-8226
ACHN = test system: ACHN
A498 = test system: A498
Malme-3M = test system: Malme-3M
CCRF-CEM = test system: CCRF-CEM
MDA-MB-231 = test system: MDA-MB-231
SNB-75 = test system: SNB-75
NCI-H460 = test system: NCI-H460
MCF7 = test system: MCF7

Measured: GI50

CCOC(=O)C1=C(N2CCCC2)NC(=O)CC1=O
> 100 µM: HCT-15
inactive: Hs-578T > 100 µM | M14 > 100 µM | OVCAR-3 > 100 µM | NCI-H23 > 100 µM | K562 > 100 µM | IGROV-1 > 100 µM | KM12 > 100 µM | SR > 100 µM | NCI-H226 > 100 µM | EKVX > 100 µM | A549 > 100 µM | MDA-N > 100 µM | HL-60 > 100 µM | PC-3 > 100 µM | T47D 63 µM | HOP-92 > 100 µM | TK-10 > 100 µM | SK-MEL-2 > 100 µM | HCC 2998 > 100 µM | MOLT-4 > 100 µM | SF-295 > 100 µM | CAKI-1 > 100 µM | HCT-116 > 100 µM | UO-31 > 100 µM | UACC-257 > 100 µM | U-251 > 100 µM | MDA-MB-435 > 100 µM | UACC-62 > 100 µM | OVCAR-4 > 100 µM | OVCAR-8 > 100 µM | DU-145 > 100 µM | SK-MEL-28 > 100 µM | SNB-19 > 100 µM | 786-0 > 100 µM | SK-MEL-5 > 100 µM | SW-620 > 100 µM | RXF 393 > 100 µM | SF-539 > 100 µM | HOP-62 > 100 µM | SF-268 > 100 µM | SK-OV-3 > 100 µM | NCI-H522 > 100 µM | SN12C > 100 µM | COLO 205 > 100 µM | LOX IMVI > 100 µM | NCI/ADR-RES > 100 µM | OVCAR-5 > 100 µM | HT-29 > 100 µM | RPMI-8226 > 100 µM | ACHN > 100 µM | A498 > 100 µM | Malme-3M > 100 µM | CCRF-CEM > 100 µM | MDA-MB-231 > 100 µM

CC(=O)OCC1OC(n2c(-c3ccccc3)c(C)c(C)c(C#N)c2=S)C(OC(C)=O)C(OC(C)=O)C1OC(C)=O (stereo not given)
64.4 µM: HCT-15
inactive: SNB-75 > 100 µM | OVCAR-3 37.4 µM and 27.2 µM | IGROV-1 > 100 µM | KM12 > 50 µM | NCI-H226 > 50 µM | EKVX 13.5 µM and 14.8 µM | MDA-N 28.8 µM and 18.1 µM | HL-60 > 100 µM | PC-3 26.4 µM | T47D > 50 µM and 34 µM | HCC 2998 > 50 µM and 86.3 µM | MOLT-4 > 50 µM | SF-295 21 µM and 23.1 µM | NCI-H460 > 50 µM and 43.4 µM | CAKI-1 > 50 µM | UACC-257 54.5 µM | U-251 20.3 µM | MDA-MB-435 57.5 µM | SK-MEL-28 72.4 µM | SK-MEL-5 > 100 µM | NCI-H522 > 50 µM and 65.8 µM | MCF7 > 50 µM | COLO 205 > 100 µM | NCI/ADR-RES 34.2 µM and 47.4 µM | OVCAR-5 37.3 µM | HT-29 > 50 µM | A498 > 50 µM and 43.8 µM | Malme-3M > 50 µM and 38.1 µM | MDA-MB-231 12.9 µM and 12.8 µM

Cc1nc2ccc(Br)cc2c(=O)n1-c1ccc(NC2OCC(O)C(O)C2O)cc1 (stereo not given)
inactive: Hs-578T 58.9 µM | IGROV-1 62.4 µM | NCI-H226 > 100 µM | EKVX > 100 µM | A549 > 100 µM | TK-10 > 100 µM and 59.3 µM | SF-295 > 100 µM | OVCAR-4 > 100 µM and 87.5 µM | DU-145 > 100 µM | SNB-19 > 100 µM | SK-MEL-5 58.3 µM | HOP-62 > 100 µM | SF-268 > 100 µM and 55.6 µM | OVCAR-5 > 100 µM | A498 > 100 µM

Source: ChEMBL document CHEMBL1201862, “PubChem BioAssay data set” (2004)
